Reference: article PMC10866072, “Design, synthesis, molecular modelling and biological evaluation of novel 6-amino-5-cyano-2-thiopyrimidine derivatives as potent anticancer agents against leukemia and apoptotic inducers” (Journal of Enzyme Inhibition and Medicinal Chemistry, 2024)

Legend:
[1] = test system: CCRF-CEM; type: cell-based; details: Homo sapiens, one dose 10^-5 M, 48 h
[2] = test system: HL-60(TB); type: cell-based; details: Homo sapiens, one dose 10^-5 M, 48 h
[3] = test system: K-562; type: cell-based; details: Homo sapiens, K562, one dose 10^-5 M, 48 h
[4] = test system: MOLT-4; type: cell-based; details: Homo sapiens, one dose 10^-5 M, 48 h, read-out: % growth
[5] = test system: RPMI-8226; type: cell-based; details: Homo sapiens, one dose 10^-5 M, 48 h
[6] = test system: SR; type: cell-based; details: Homo sapiens, one dose 10^-5 M, 48 h
[7] = test system: A549/ATCC; type: cell-based; details: Homo sapiens, one dose 10^-5 M, 48 h
[8] = test system: EKVX; type: cell-based; details: Homo sapiens, one dose 10^-5 M, 48 h
[9] = test system: HOP-62; type: cell-based; details: Homo sapiens, one dose 10^-5 M, 48 h
[10] = test system: HOP-92; type: cell-based; details: Homo sapiens, one dose 10^-5 M, 48 h
[11] = test system: NCI-H226; type: cell-based; details: Homo sapiens, one dose 10^-5 M, 48 h
[12] = test system: NCI-H23; type: cell-based; details: Homo sapiens, one dose 10^-5 M, 48 h, read-out: % growth
[13] = test system: NCI-H460; type: cell-based; details: Homo sapiens, one dose 10^-5 M, 48 h, read-out: % growth
[14] = test system: NCI-H522; type: cell-based; details: Homo sapiens, one dose 10^-5 M, 48 h
[15] = test system: HCC-2998; type: cell-based; details: Homo sapiens, one dose 10^-5 M, 48 h
[16] = test system: HCT-116; type: cell-based; details: Homo sapiens, one dose 10^-5 M, 48 h, read-out: % growth
[17] = test system: HCT-15; type: cell-based; details: Homo sapiens, one dose 10^-5 M, 48 h, read-out: % growth
[18] = test system: HT29; type: cell-based; details: Homo sapiens, HT-29, one dose 10^-5 M, 48 h
[19] = test system: KM12; type: cell-based; details: Homo sapiens, one dose 10^-5 M, 48 h
[20] = test system: SW-620; type: cell-based; details: Homo sapiens, one dose 10^-5 M, 48 h
[21] = test system: SF-268; type: cell-based; details: Homo sapiens, one dose 10^-5 M, 48 h, read-out: % growth
[22] = test system: SF-295; type: cell-based; details: Homo sapiens, one dose 10^-5 M, 48 h
[23] = test system: SF-539; type: cell-based; details: Homo sapiens, one dose 10^-5 M, 48 h
[24] = test system: SNB-19; type: cell-based; details: Homo sapiens, one dose 10^-5 M, 48 h, read-out: % growth
[25] = test system: SNB-75; type: cell-based; details: Homo sapiens, one dose 10^-5 M, 48 h
[26] = test system: U251; type: cell-based; details: Homo sapiens, U-251, one dose 10^-5 M, 48 h
[27] = test system: LOX IMVI; type: cell-based; details: Homo sapiens, one dose 10^-5 M, 48 h, read-out: % growth
[28] = test system: MALME-3M; type: cell-based; details: Homo sapiens, one dose 10^-5 M, 48 h
[29] = test system: M14; type: cell-based; details: Homo sapiens, one dose 10^-5 M, 48 h
[30] = test system: MDA-MB-435; type: cell-based; details: Homo sapiens, one dose 10^-5 M, 48 h, read-out: % growth
[31] = test system: SK-MEL-2; type: cell-based; details: Homo sapiens, one dose 10^-5 M, 48 h
[32] = test system: SK-MEL-28; type: cell-based; details: Homo sapiens, one dose 10^-5 M, 48 h
[33] = test system: SK-MEL-5; type: cell-based; details: Homo sapiens, one dose 10^-5 M, 48 h, read-out: % growth
[34] = test system: UACC-257; type: cell-based; details: Homo sapiens, one dose 10^-5 M, 48 h
[35] = test system: UACC-62; type: cell-based; details: Homo sapiens, one dose 10^-5 M, 48 h
[36] = test system: IGROV1; type: cell-based; details: Homo sapiens, IGROV-1, one dose 10^-5 M, 48 h, read-out: % growth
[37] = test system: OVCAR-3; type: cell-based; details: Homo sapiens, one dose 10^-5 M, 48 h
[38] = test system: OVCAR-4; type: cell-based; details: Homo sapiens, one dose 10^-5 M, 48 h
[39] = test system: OVCAR-5; type: cell-based; details: Homo sapiens, one dose 10^-5 M, 48 h
[40] = test system: OVCAR-8; type: cell-based; details: Homo sapiens, one dose 10^-5 M, 48 h
[41] = test system: SK-OV-3; type: cell-based; details: Homo sapiens, one dose 10^-5 M, 48 h
[42] = test system: 786-0; type: cell-based; details: Homo sapiens, one dose 10^-5 M, 48 h
[43] = test system: A498; type: cell-based; details: Homo sapiens, one dose 10^-5 M, 48 h
[44] = test system: ACHN; type: cell-based; details: Homo sapiens, one dose 10^-5 M, 48 h
[45] = test system: CAKI-1; type: cell-based; details: Homo sapiens, CAKI-1, 48 h, one dose 10^-5 M, 48 h
[46] = test system: RXF 393; type: cell-based; details: Homo sapiens, RXF 393, 48 h, one dose 10^-5 M, 48 h, read-out: % growth
[47] = test system: SN12C; type: cell-based, human; details: Homo sapiens, one dose 10^-5 M, 48 h
[48] = test system: TK-10; type: cell-based; details: Homo sapiens, one dose 10^-5 M, 48 h
[49] = test system: UO-31; type: cell-based; details: Homo sapiens, UO-31, 48 h, one dose 10^-5 M, 48 h
[50] = test system: PC-3; type: cell-based; details: Homo sapiens, one dose 10^-5 M, 48 h
[51] = test system: DU-145; type: cell-based; details: Homo sapiens, one dose 10^-5 M, 48 h
[52] = test system: MCF7; type: cell-based; details: Homo sapiens, one dose 10^-5 M, 48 h, read-out: % growth
[53] = test system: MDA-MB-231/ATCC; type: cell-based; details: Homo sapiens, one dose 10^-5 M, 48 h
[54] = test system: HS 578T; type: cell-based; details: Homo sapiens; one dose 10^-5 M, 48 h; HS 578T; read-out: % growth
[55] = test system: T-47D; type: cell-based; details: Homo sapiens, T47D, one dose 10^-5 M, 48 h, read-out: % growth
[56] = test system: MDA-MB-468; type: cell-based; details: Homo sapiens, one dose 10^-5 M, 48 h
[57] = test system: full NCI 60 cell lines panel; details: for activity at 10 µM: Homo sapiens, 60 cell, 48 h, read-out: Mean % growth

N#Cc1c(N)nc(S)nc1-c1ccc(Cl)cc1 [Compound 1b]
% cell growth at 10 µM [1]: 65.5%
% growth at 10 µM [2]: 69.6%
% growth at 10 µM [3]: 68.1%
activity at 10 µM [4]: 50.7%
% growth at 10 µM [5]: 47.2%
percent cell growth at 10 µM [6]: 66.9%
% growth at 10 µM [7]: 86%
% cell growth at 10 µM [8]: 61%
% growth at 10 µM [9]: 74.6%
% growth at 10 µM [10]: 43.5%
% growth at 10 µM [11]: 78.7%
activity at 10 µM [12]: 85.5%
activity at 10 µM [13]: 86.7%
% growth at 10 µM [14]: 58.7%
% growth at 10 µM [15]: 99.6%
activity at 10 µM [16]: 76.5%
activity at 10 µM [17]: 86%
% growth at 10 µM [18]: 91.1%
% growth at 10 µM [19]: 82%
% growth at 10 µM [20]: 87.3%
activity at 10 µM [21]: 69.7%
% cell growth at 10 µM [22]: 76.2%
% growth at 10 µM [23]: 71.9%
activity at 10 µM [24]: 60.4%
% growth at 10 µM [25]: 42.2%
% growth at 10 µM [26]: 81.6%
activity at 10 µM [27]: 79.2%
% growth at 10 µM [28]: 99.6%
% growth at 10 µM [29]: 99.9%
activity at 10 µM [30]: 86.5%
% growth at 10 µM [31]: 96.5%
% cell growth at 10 µM [32]: 95.6%
activity at 10 µM [33]: 85.9%
percent cell growth at 10 µM [34]: 102%
% growth at 10 µM [35]: 66.8%
activity at 10 µM [36]: 57.9%
% growth at 10 µM [37]: 93.4%
% growth at 10 µM [38]: 76.2%
percent cell growth at 10 µM [39]: 91.6%
% growth of cells at 10 µM [40]: 82.2%
% growth at 10 µM [41]: 84.3%
% growth at 10 µM [42]: 85%
% growth at 10 µM [43]: 77.4%
% growth at 10 µM [44]: 77.2%
% growth at 10 µM [45]: 52%
activity at 10 µM [46]: 55.5%
% growth at 10 µM [47]: 75.7%
% cell growth at 10 µM [48]: 126%
% cell growth at 10 µM [49]: 45.4%
percent cell growth at 10 µM [50]: 56.4%
% growth at 10 µM [51]: 86.8%
activity at 10 µM [52]: 67.7%
% growth at 10 µM [53]: 53.7%
activity at 10 µM [54]: 74%
activity at 10 µM [55]: 58.3%
percent cell growth at 10 µM [56]: 81.1%
activity at 10 µM [57]: 75.7%

N=C(NN=Cc1ccc(Cl)cc1)c1c(N)nc(S)nc1-c1ccc(Cl)cc1 [Compound 4h, 4-amino-6–(4-chlorophenyl)-N'-[(4-chlorophenyl)methylene]-2-mercapto pyrimidine-5-carboximidohydrazide]
% cell growth at 10 µM [1]: 75.5%
% growth at 10 µM [2]: 101%
% growth at 10 µM [3]: 86%
activity at 10 µM [4]: 85.8%
% growth at 10 µM [5]: 83.8%
percent cell growth at 10 µM [6]: 86.8%
% growth at 10 µM [7]: 93.1%
% cell growth at 10 µM [8]: 75%
% growth at 10 µM [9]: 95.6%
% growth at 10 µM [10]: 84.2%
% growth at 10 µM [11]: 99%
activity at 10 µM [12]: 93.7%
activity at 10 µM [13]: 93.7%
% growth at 10 µM [14]: 85.4%
% growth at 10 µM [15]: 103%
activity at 10 µM [16]: 86%
activity at 10 µM [17]: 90.4%
% growth at 10 µM [18]: 99%
% growth at 10 µM [19]: 91.9%
% growth at 10 µM [20]: 103%
activity at 10 µM [21]: 96%
% cell growth at 10 µM [22]: 90.2%
% growth at 10 µM [23]: 80.4%
activity at 10 µM [24]: 87.5%
% growth at 10 µM [25]: 83.5%
% growth at 10 µM [26]: 94%
activity at 10 µM [27]: 94.3%
% growth at 10 µM [28]: 107%
% growth at 10 µM [29]: 104%
activity at 10 µM [30]: 98.8%
% growth at 10 µM [31]: 101%
% cell growth at 10 µM [32]: 100%
activity at 10 µM [33]: 97.3%
percent cell growth at 10 µM [34]: 101%
% growth at 10 µM [35]: 81.8%
activity at 10 µM [36]: 78.8%
% growth at 10 µM [37]: 107%
% growth at 10 µM [38]: 83.1%
percent cell growth at 10 µM [39]: 95.4%
% growth of cells at 10 µM [40]: 94.8%
% growth at 10 µM [41]: 77.5%
% growth at 10 µM [42]: 98.5%
% growth at 10 µM [43]: 102%
% growth at 10 µM [44]: 77.2%
% growth at 10 µM [45]: 79.4%
activity at 10 µM [46]: 103%
% growth at 10 µM [47]: 91.8%
% cell growth at 10 µM [48]: 122%
% cell growth at 10 µM [49]: 66.3%
percent cell growth at 10 µM [50]: 79.6%
% growth at 10 µM [51]: 108%
activity at 10 µM [52]: 76.6%
% growth at 10 µM [53]: 69.7%
activity at 10 µM [54]: 93%
activity at 10 µM [55]: 72.1%
percent cell growth at 10 µM [56]: 99.3%
activity at 10 µM [57]: 91%
activity on all 60 cancer cell lines tested (in words) ([57]; one dose): weak activity
